One experiment addresses G2019S LRRK2 (Homo sapiens, UniProt Q5S007, G2019S). Nature of the experiment: G2019S LRRK2 inhibition (Invitrogen SelectScreen / TR-FRET biochemical assay). The following applies: for IC50: numeric value. The arrangement: The protein construct used in the assay is GST tagged 969-2527; GST; purchased Invitrogen. The procedure: IC50s were determined using Invitrogen's SelectScreen® Profiling Service for wild type and LRRK2 G2019S. The test compounds were screened in 1% DMSO (final) in the well.
a) % inhibition is measured at one concentration
b) a 10-point titration is run to ensure the kinase is inhibited within an expected IC50 range
Biochemical Assay Protocol:
Compound potency against wild-type and G2019S LRRK2 is measured via TR-FRET. The IC50, the amount of inhibitor required to inhibitor 50% of the protein under the given assay conditions, is determined by varying the amount of compound (500-0.001 uM) by serial dilution with 12-data points per compound, in duplicate. The substrate (Fluorescein-GAGRLGRDKYKTLRQIRQ) and ATP is fixed at 0.8 uM and 57 uM (KmATP), respectively. All assays are run in Corning low volume […] round bottomed plates. The assay is run in 50 mM Tris-HCl pH8.5, 10 mM MgCl2, 0.01% Brij-35, 1 mM EGTA, 2 mMDTT. The TR-FRET assay is an end-point assay where the reaction with protein, substrate, inhibitor and ATP is incubated for 1 hour at room temperature. The compound is pre-incubated with the protein and substrate prior to initiating the reaction with ATP. Phospho-transfer is detected using a Terbium labeled anti-pLRRKtide that binds to phosphorylated substrate creating FRET transfer when excited at 340 nm. Emissions signals are taken for terbium and FRET induced fluorescein at 495 nm and 520 nm, respectively, using a Biotek Synergy 2 spectrophotometer. The dose response is determined by plotting the emission ratio of 520/495 against the log of the inhibitor concentration. The maximum inhibition and non-inhibition controls is run on all plates. Staurosporine is used as the positive inhibition control and DMSO is used as the negative point control. A 12-point dose curve of Staurosporine is run as a dosing control. The IC50 is determined to be the inhibitor concentration at which 50% inhibition is achieved. The protein construct used in the assay is GST tagged 969-2527. The protein is commercially available from Invitrogen.
Alternatively, compounds of formulas (II), (I), (I-A), (I-B), (I-C), (I-D), (I-D-1), (I-D-2), (I-E), (I-F), (I-G), (I-H), (I-I), (I-I-1), (I-I-2), (I-J), (I-K), (I-L), (I-M), (I-N), (I-Z-1), (I-Z-2), (I-Z-2-a), (I-Z-2-b), (I-Z-2-c), (I-Z-2-d), (I-Z-3-a), (I-Z-3-b), (I-Z-3-c), or (I-Z-3-d) were tested using Invitrogen's SelectScreen® Profiling Service for LRRK2 G2019S.

The next experiment has as its target ABL1 (Homo sapiens, UniProt P00519). Nature of the experiment: Kinase selectivity panel: ABL1. It is filed as biochemical.
A further experiment addresses T1, AURKA (Homo sapiens, UniProt O14965).
T1 sequence (O14965 1-403): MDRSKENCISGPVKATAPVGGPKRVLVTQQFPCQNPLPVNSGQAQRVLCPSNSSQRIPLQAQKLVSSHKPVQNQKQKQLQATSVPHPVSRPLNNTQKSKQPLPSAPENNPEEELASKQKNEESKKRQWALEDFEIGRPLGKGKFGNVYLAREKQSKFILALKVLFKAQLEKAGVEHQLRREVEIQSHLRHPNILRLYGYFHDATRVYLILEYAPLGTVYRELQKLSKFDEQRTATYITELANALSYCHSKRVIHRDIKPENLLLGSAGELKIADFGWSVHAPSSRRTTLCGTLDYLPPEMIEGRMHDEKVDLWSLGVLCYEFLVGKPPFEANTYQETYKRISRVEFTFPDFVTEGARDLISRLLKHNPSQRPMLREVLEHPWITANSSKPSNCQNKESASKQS
Nature of the experiment: Kinase selectivity panel: AURKA. It is filed as biochemical.

The next experiment has as its target CAMK2D (Homo sapiens, UniProt Q13557). Nature of the experiment: Kinase selectivity panel: CAMK2D. It is filed as biochemical.
A further experiment addresses CDK5/p35 (Homo sapiens, UniProt Q00535). Kind of experiment: Kinase selectivity panel: CDK5/p35. Type of experiment: biochemical.
Another experiment deals with T2, CHEK1 (Homo sapiens, UniProt O14757).
T2 sequence (O14757 1-476): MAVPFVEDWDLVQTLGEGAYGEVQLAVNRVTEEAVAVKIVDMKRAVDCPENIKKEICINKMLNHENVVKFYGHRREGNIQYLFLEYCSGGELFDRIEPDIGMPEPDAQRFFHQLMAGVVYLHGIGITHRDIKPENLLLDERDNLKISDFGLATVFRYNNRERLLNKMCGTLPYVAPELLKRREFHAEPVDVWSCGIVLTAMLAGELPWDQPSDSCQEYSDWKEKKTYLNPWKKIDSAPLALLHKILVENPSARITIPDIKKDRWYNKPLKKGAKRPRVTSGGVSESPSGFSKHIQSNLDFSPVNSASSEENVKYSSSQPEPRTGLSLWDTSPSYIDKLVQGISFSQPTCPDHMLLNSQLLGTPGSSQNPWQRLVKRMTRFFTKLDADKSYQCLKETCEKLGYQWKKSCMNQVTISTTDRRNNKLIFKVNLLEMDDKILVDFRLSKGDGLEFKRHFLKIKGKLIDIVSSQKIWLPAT
Nature of the experiment: Kinase selectivity panel: CHEK1. Type of experiment: biochemical.

The target in the next experiment is T3, IRAK4 (Homo sapiens, UniProt Q9NWZ3).
T3 sequence (Q9NWZ3 1-460): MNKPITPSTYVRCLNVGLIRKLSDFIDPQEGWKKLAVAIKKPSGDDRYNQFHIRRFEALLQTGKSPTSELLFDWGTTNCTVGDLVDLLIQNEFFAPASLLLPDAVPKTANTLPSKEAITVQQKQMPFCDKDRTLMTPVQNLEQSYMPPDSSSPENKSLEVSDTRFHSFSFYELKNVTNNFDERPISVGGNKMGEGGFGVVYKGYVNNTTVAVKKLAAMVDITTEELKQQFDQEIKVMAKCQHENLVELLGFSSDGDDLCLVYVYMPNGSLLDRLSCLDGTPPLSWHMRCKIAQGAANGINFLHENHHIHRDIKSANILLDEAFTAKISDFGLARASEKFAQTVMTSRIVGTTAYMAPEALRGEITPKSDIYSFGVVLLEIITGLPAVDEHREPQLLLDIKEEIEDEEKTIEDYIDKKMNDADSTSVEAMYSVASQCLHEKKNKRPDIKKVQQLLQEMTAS
Kind of experiment: Kinase selectivity panel: IRAK4. Type of experiment: biochemical.

The next experiment concerns the target MARK2 (Homo sapiens, UniProt Q7KZI7). Nature of the experiment: Kinase selectivity panel: MARK2. Type of experiment: biochemical.

Each structure is given as a SMILES string.

ABL1, sequence (P00519 whole entry, species assumed): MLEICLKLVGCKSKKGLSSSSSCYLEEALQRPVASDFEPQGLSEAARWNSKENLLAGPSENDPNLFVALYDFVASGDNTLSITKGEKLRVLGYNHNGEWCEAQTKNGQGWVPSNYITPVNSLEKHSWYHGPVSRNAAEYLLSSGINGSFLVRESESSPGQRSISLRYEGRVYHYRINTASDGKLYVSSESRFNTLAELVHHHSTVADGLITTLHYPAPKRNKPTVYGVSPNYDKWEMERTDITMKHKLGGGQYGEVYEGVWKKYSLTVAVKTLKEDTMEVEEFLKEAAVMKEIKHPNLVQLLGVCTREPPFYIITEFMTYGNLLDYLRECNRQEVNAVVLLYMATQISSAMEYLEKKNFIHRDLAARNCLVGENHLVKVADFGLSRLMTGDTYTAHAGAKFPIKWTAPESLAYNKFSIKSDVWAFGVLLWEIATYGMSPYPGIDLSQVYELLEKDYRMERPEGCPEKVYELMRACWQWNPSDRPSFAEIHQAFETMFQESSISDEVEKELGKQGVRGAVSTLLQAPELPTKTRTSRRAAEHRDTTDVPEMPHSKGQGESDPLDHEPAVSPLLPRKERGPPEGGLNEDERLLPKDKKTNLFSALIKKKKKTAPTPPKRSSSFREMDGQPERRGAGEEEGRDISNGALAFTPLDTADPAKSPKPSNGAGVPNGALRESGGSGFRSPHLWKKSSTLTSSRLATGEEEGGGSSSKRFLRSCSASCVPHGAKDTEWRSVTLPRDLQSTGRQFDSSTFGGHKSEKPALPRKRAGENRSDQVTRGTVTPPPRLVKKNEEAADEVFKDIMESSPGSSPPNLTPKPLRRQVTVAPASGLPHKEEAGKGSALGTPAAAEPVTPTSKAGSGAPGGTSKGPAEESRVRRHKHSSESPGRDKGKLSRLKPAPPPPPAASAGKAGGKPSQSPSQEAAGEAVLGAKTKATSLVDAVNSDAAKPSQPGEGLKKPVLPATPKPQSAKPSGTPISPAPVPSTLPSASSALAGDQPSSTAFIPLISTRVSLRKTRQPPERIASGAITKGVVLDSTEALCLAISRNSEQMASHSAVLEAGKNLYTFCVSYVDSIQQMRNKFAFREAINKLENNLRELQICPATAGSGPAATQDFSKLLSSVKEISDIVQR
CDK5/p35, sequence (Q00535 whole entry, species assumed): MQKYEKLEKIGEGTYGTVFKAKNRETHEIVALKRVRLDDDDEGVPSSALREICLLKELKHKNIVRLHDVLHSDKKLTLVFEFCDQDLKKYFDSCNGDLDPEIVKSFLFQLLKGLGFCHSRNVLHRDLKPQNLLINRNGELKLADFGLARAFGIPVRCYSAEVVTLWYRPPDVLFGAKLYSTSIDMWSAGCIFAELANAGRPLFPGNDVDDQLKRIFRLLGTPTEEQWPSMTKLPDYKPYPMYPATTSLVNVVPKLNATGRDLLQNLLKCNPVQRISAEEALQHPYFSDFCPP
CDK5/p35, sequence (Q15078 whole entry partner, species assumed): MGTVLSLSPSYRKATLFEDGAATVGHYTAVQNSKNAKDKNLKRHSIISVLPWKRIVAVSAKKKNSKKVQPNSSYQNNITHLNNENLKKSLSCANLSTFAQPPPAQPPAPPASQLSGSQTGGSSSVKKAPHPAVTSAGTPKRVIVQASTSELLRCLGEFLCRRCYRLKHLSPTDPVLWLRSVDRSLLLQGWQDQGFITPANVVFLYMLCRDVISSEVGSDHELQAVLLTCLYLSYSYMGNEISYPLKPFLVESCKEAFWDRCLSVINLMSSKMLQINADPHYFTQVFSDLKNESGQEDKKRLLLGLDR
G2019S LRRK2, sequence (Q5S007 969-2527 G2019S): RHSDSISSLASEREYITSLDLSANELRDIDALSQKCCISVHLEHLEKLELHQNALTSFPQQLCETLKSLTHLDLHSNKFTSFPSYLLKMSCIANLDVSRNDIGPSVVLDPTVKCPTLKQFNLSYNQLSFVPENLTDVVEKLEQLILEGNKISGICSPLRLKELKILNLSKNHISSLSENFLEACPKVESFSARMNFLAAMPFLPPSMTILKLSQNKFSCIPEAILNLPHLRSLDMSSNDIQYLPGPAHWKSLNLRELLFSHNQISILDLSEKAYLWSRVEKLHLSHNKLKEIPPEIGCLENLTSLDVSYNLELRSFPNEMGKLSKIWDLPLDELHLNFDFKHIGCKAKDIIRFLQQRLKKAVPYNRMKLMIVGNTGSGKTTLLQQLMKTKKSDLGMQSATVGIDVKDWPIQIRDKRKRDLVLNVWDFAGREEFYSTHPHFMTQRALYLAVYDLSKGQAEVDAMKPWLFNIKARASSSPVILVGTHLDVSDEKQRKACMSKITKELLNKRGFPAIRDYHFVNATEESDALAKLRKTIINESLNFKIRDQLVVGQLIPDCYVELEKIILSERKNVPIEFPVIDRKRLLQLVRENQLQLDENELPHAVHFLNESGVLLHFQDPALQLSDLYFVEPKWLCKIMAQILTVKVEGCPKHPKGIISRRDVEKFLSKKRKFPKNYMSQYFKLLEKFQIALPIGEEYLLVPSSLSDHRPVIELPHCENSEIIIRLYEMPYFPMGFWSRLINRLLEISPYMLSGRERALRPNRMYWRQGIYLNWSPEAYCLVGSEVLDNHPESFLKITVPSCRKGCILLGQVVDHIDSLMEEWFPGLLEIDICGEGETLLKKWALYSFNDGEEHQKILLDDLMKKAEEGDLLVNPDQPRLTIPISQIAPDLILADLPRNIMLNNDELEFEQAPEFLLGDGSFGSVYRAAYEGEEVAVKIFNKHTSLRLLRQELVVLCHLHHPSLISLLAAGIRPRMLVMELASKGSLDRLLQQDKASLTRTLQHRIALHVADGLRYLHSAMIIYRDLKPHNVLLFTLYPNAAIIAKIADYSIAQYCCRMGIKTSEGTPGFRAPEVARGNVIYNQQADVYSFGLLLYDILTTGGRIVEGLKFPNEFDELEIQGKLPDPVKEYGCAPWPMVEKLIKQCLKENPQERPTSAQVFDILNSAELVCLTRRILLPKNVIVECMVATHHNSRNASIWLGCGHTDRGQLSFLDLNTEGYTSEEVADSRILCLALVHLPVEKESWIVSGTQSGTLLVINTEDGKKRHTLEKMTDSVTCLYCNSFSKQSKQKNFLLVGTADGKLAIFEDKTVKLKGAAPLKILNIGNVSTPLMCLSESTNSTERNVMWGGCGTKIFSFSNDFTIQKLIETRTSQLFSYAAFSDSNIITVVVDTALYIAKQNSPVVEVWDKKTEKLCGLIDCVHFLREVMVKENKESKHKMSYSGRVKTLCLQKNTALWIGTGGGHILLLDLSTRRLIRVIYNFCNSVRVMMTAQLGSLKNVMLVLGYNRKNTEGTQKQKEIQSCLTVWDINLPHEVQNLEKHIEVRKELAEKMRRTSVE
CAMK2D, sequence (Q13557 whole entry, species assumed): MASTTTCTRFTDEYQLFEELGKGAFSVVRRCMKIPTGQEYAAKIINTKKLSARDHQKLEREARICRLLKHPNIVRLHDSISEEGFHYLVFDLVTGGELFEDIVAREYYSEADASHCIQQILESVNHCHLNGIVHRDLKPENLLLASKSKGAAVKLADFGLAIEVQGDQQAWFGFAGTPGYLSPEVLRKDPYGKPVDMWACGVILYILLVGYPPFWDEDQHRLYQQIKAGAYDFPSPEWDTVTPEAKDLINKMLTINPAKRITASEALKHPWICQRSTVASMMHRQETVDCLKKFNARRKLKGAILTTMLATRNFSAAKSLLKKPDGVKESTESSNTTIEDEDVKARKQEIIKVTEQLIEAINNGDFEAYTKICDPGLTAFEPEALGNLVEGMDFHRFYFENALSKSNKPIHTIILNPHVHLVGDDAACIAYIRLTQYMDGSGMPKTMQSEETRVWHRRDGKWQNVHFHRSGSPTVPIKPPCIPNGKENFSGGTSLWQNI
MARK2, sequence (Q7KZI7 whole entry, species assumed): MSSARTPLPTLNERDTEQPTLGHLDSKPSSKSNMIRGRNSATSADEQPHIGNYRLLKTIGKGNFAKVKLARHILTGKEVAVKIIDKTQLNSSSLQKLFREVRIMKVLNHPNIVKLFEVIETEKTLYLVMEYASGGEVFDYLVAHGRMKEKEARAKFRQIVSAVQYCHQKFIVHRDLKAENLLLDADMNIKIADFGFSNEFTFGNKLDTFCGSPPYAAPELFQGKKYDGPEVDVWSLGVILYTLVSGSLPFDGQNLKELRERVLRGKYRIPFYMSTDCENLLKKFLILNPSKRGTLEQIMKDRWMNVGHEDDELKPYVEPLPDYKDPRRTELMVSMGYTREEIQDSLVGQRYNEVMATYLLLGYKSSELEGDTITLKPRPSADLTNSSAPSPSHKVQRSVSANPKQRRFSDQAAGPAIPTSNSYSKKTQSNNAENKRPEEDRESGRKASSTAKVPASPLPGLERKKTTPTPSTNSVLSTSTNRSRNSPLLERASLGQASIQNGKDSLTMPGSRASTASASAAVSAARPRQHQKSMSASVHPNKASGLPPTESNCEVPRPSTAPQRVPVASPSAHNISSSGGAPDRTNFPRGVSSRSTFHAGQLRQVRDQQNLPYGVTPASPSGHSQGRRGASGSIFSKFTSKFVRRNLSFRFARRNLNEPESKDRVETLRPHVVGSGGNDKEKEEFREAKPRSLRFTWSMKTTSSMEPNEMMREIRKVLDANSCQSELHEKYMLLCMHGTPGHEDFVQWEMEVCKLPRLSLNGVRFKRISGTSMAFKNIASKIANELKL

For `O=C1Nc2ccccc2/C1=C\c1nc2ccccc2s1` [Compound 7, (3E)-3-(1,3-benzothiazol-2-ylmethylene)indolin-2-one], the inhibition at 0.1 µM at G2019S LRRK2 was -5%.
As to `Cc1cnc(/C=C2\C(=O)Nc3ccccc32)[nH]1` [Compound 2, (3Z)-3-[(5-methyl-1H-imidazol-2-yl)methylene]indolin-2-one], the IC50 at G2019S LRRK2 came out at 181 nM.
On to `Cc1ncc(/C=C2\C(=O)Nc3ccc(OC(C)C)cc32)[nH]1` [Compound 14, (3Z)-5-isopropoxy-3-[(2-methyl-1H-imidazol-5-yl)methylene]indolin-2-one], for which the IC50 at ABL1 is 860 nM; on AURKA, 50 nM; on CAMK2D, 615 nM; against CDK5/p35, 258 nM; against CHEK1 it was 999 nM; at IRAK4, 655 nM. The IC50 came to 434 nM against MARK2 and 1.2 nM at G2019S LRRK2.
With `COc1ccc2c(c1)NC(=O)/C2=C\c1cnc(C)[nH]1` [Compound 6, (3Z)-6-methoxy-3-[(2-methyl-1H-imidazol-5-yl)methylene]indolin-2-one], the IC50 on G2019S LRRK2 was 127 nM.
Still for that read-out and setting: in the case of `Cc1ncc(/C=C2\C(=O)Nc3ccc(F)cc32)[nH]1` [Compound 3, (3Z)-5-fluoro-3-[(2-methyl-1H-imidazol-5-yl)methylene]indolin-2-one] it was 38 nM; in that of `O=C1Nc2ccccc2/C1=C\c1cnc2ccccc2c1` [Compound 8, (3E)-3-(3-quinolylmethylene)indolin-2-one], 872 nM.
As to `O=C1Nc2ccccc2/C1=C/c1cc2cccnc2[nH]1` [Compound 5, (3Z)-3-(1H-pyrrolo[2,3-b]pyridin-2-ylmethylene)indolin-2-one], the inhibition at 10 µM at G2019S LRRK2 is 30%.
In the case of `Cc1ncc(/C=C2\C(=O)Nc3ccc(S(C)(=O)=O)cc32)[nH]1` [Compound 15, (3Z)-3-[(2-methyl-1H-imidazol-5-yl)methylene]-5-methylsulfonyl-indolin-2-one], at G2019S LRRK2, the IC50 turned out to be 125 nM.
For `CCOc1ccc2c(c1)/C(=C/c1cnc(C)[nH]1)C(=O)N2` [Compound 13, (3Z)-5-ethoxy-3-[(2-methyl-1H-imidazol-5-yl)methylene]indolin-2-one], at G2019S LRRK2, the IC50 came to 3.1 nM.
`Cc1ncc(/C=C2\C(=O)Nc3ccc(OC(F)(F)F)cc32)[nH]1` [Compound 11, (3Z)-3-[(2-methyl-1H-imidazol-5-yl)methylene]-5-(trifluoromethoxy)indolin-2-one]: the IC50 on G2019S LRRK2 amounted to 41.2 nM.
Regarding `Cc1ncc(/C=C2\C(=O)Nc3ccc(Cl)cc32)[nH]1` [Compound 10, (3Z)-5-chloro-3-[(2-methyl-1H-imidazol-5-yl)methylene]indolin-2-one], at G2019S LRRK2, the IC50 was determined as 16.4 nM.
In the case of `COc1ccc2c(c1)/C(=C/c1cnc(C(C)(C)C)[nH]1)C(=O)N2` [Compound 19, (3Z)-3-[(2-tert-butyl-1H-imidazol-5-yl)methylene]-5-methoxy-indolin-2-one], the IC50 against ABL1 is greater than 10000 nM; against AURKA, greater than 10000 nM; on CAMK2D, 1470 nM; against CDK5/p35, greater than 10000 nM; on CHEK1 it was greater than 10000 nM; against IRAK4, greater than 10000 nM. Moreover, the figures for the IC50 on MARK2 and on G2019S LRRK2 were greater than 10000 nM and 43.9 nM, respectively.
`Cc1cc(/C=C2\C(=O)Nc3ccccc32)[nH]n1` [Compound 1, (3Z)-3-[(3-methyl-1H-pyrazol-5-yl)methylene]indolin-2-one]: the inhibition at 0.1 µM at G2019S LRRK2 worked out at 22%.
Regarding `O=C1Nc2ccccc2/C1=C\c1nc2ccccc2o1` [Compound 9, (3E)-3-(1,3-benzoxazol-2-ylmethylene)indolin-2-one], the inhibition at 10 µM on G2019S LRRK2 worked out at 11%.
As to `COc1ccc2c(c1)/C(=C/c1cnc(C(C)C)[nH]1)C(=O)N2` [Compound 12, (3Z)-3-[(2-isopropyl-1H-imidazol-5-yl)methylene]-5-methoxy-indolin-2-one], the IC50 against ABL1 is greater than 10000 nM; on AURKA, 5260 nM; against CAMK2D it was 275 nM; at CDK5/p35, greater than 10000 nM; against CHEK1, greater than 10000 nM; on IRAK4, 3440 nM. The IC50 against MARK2 was 1840 nM; at G2019S LRRK2, 7.6 nM.
On to `COc1ccc2c(c1)/C(=C/c1cnc(C)[nH]1)C(=O)N2` [Compound 4, (3Z)-5-methoxy-3-[(2-methyl-1H-imidazol-5-yl)methylene]indolin-2-one], for which the IC50 at G2019S LRRK2 turned out to be 6.9 nM.
Consider `COCc1ncc(/C=C2\C(=O)Nc3ccc(OC)cc32)[nH]1` [Compound 17, (3Z)-5-methoxy-3-[[2-(methoxymethyl)-1H-imidazol-5-yl]methylene]indolin-2-one], for which, at G2019S LRRK2, the IC50 turned out to be 38.7 nM.
On to `CCc1ncc(/C=C2\C(=O)Nc3ccc(OC)cc32)[nH]1` [Compound 16, (3Z)-3-[(2-ethyl-1H-imidazol-5-yl)methylene]-5-methoxy-indolin-2-one], for which the IC50 at G2019S LRRK2 was determined as 3.5 nM.
